Values quoted from earlier work in patent US20190255075A1, “TREATMENT OF PROSTATE CANCER” (priority 2018, published 2019).

Experiments:
[1] = system: hormone refractory prostate cancer; conditions: single agent
[2] = system: prostate cancer cells; conditions: sirolimus used alone

## CO[C@H]1C[C@@H]2CC[C@@H](C)[C@@](O)(O2)C(=O)C(=O)N2CCCC[C@H]2C(=O)O[C@H]([C@H](C)C[C@@H]2CC[C@@H](O)[C@H](OC)C2)CC(=O)[C@H](C)/C=C(\C)[C@@H](O)[C@@H](OC)C(=O)[C@H](C)C[C@H](C)/C=C/C=C/C=C/1C [Sirolimus, sirolimus]
[1]; of twelve evaluable patients with hormone refractory prostate cancer
  patients with positive outcomes: two
[1]; one of the two responding patients, with partial radiographic response
  decrease in PSA: 50%
[2]
  effect on prostate cancer cells: limited effects
